Test results: PubChem BioAssay (NCI)
Where “and” joins values, the source holds several entries; their conditions need not be identical. Equal entries are not always repeated.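 Grown in 96-well plates, cells were treated for 48 hours with each compound at five concentrations. Insufficient inhibition: endpoint recorded as highest concentration tested. GI50 = concentration required for 50% inhibition of growth. TGI: total growth inhibition.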

Experiments:
Test in all cases: NCI tumour cell line growth inhibition, 48 h
[1] = test system: UACC-62 melanoma
[2] = test system: SNB-75 CNS
[3] = test system: SR leukemia
[4] = test system: OVCAR-4 ovarian
[5] = test system: RPMI-8226 leukemia
[6] = test system: TK-10 renal
[7] = test system: M14 melanoma
[8] = test system: CAKI-1 renal
[9] = test system: ACHN renal
[10] = test system: SK-OV-3 ovarian

SMILES | GI50 [1] [µM] | TGI [1] | GI50 [2] [µM] | TGI [2] [µM] | GI50 [3] [µM] | TGI [3] | GI50 [4] [µM] | TGI [4] | GI50 [5] [µM] | TGI [5] | GI50 [6] [µM] | TGI [6] [µM] | GI50 [7] [µM] | TGI [7] | GI50 [8] [µM] | TGI [8] | GI50 [9] [µM] | TGI [9] | GI50 [10] [µM] | TGI [10] [µM]
O=C(/C=C/c1ccco1)c1cccc(Nc2nc(Nc3ccccc3)nc(Nc3ccccc3)n2)c1 | 48.8 | > 100 µM | 2.16 | > 69.5 | 5.01 | > 24.1 µM | 10.6 | > 100 µM | 0.279 | 5.47 µM | 55.3 | > 100 | 37.7 | > 100 µM | 23.2 | > 100 µM | 30.5 | > 100 µM | > 86.6 | > 100
CC(=O)O[C@H]1CC[C@@]2(C)[C@@H](CC[C@@H]3[C@@H]2CC(=O)[C@@]2(C)[C@H]3C[C@@H]3CC(C)=CC(=O)[C@@H]32)C1 | – | > 100 µM | – | 73.8 | – | > 100 µM | – | > 100 µM | – | 45.8 µM | – | > 100 | – | > 100 µM | – | > 100 µM | – | > 100 µM | – | > 100
COc1nc(C(Cl)(Cl)Cl)c(Cl)c(OC)c1Cl | > 50.4 | > 88.8 µM and 54.5 µM | – | 55.6 | > 45.5 | > 72.1 µM and 82.6 µM | > 52.1 | 99.9 µM and 66.3 µM | > 41.1 | > 62.9 µM and 112 µM | > 91.6 | 94.5 | > 52 | > 83.7 µM and 74.5 µM | > 46 | > 72.9 µM and 74.6 µM | – | > 54.1 µM and 73.5 µM | > 64.2 | 26.9
CC/C(=C(/c1ccc(Cl)cc1)c1ccc(OCCCN(C)C)cc1)c1ccc(OC)cc1 | 1.14 | 2.5 µM | 6.02 | 12.3 | 0.983 | 2.27 µM | 5.25 | 11.5 µM | 1.17 | 2.54 µM | 6.23 | 13 | 0.966 | 1.92 µM | 5.55 | 12.5 µM | 5.61 | 12.4 µM | 10.2 | 17.5
COc1cccc(-c2nn(C)c3sc(C(=O)NCCN4CCN(c5ccccc5F)CC4)cc23)c1 | 10.5 | 84.5 µM | 3.59 | 95.3 | 5.43 | > 100 µM | 19.1 | > 100 µM | 6.51 | > 100 µM | 65.4 | > 100 | – | – | 9.02 | 91.5 µM | 19.2 | > 100 µM | > 100 | > 100
CN(Cc1cccc(Cl)c1)c1ccc(CO)c(Cl)c1 | 0.321 | 3.75 µM | 14.7 | 49.7 | 22.4 | 72.8 µM | 2.33 | 16.5 µM | 12.2 | 55 µM | 0.215 | 1.36 | 17.5 | 49.3 µM | 2.36 | 23.4 µM | 21.9 | 93.5 µM | 8.16 | 28.3
COc1cc(-c2nc3cc(Cl)c(Cl)cc3[nH]2)ccc1OCC(=O)N=Nc1c(O)[nH]c2ccccc12 | 1.41 | 2.75 µM | 1.23 | 2.65 | 0.301 | > 100 µM | 0.307 | 0.921 µM | 0.645 | 3.35 µM | 2.45 | 6.76 | 0.328 | 1.33 µM | 1.45 | 2.94 µM | 2.11 | 13.8 µM | 1.91 | 4.39
OC1/C(=C/c2ccccc2)CNC/C1=C\c1ccccc1 (stereo unspecified) | – | > 100 µM | – | > 100 | – | > 100 µM | – | > 100 µM | – | > 100 µM | – | > 100 | – | > 100 µM | – | > 100 µM | – | > 100 µM | – | > 100
COc1cc(-c2cc(C(=O)N3CCN(C(=O)c4ccccc4NCc4cccs4)CC3)nc3cc(-c4ccccc4)nn23)cc(OC)c1OC | 2.8 | > 100 µM | 3.32 | 27.6 | 3.31 | > 100 µM | 5.55 | > 100 µM | – | – | 20.6 | > 100 | 5.91 | > 100 µM | 2.78 | 8.33 µM | 4.93 | > 100 µM | 5.5 | > 100
COc1ccc(/C=C\c2cc(OC)c(OC(C)=O)c(OC)c2)cc1 | – | 33.5 µM | – | 15 | – | 98.2 µM | – | > 100 µM | – | 85.7 µM | – | – | – | 92.2 µM | – | > 100 µM | – | > 100 µM | – | > 100
C=C(C=O)[C@@H]1CC=C(C=O)CC1 | 3.14 | 12.2 µM | 15.9 | > 100 | 5.48 | > 100 µM | 4.19 | > 100 µM | 2.14 | 6.63 µM | 8.76 | 54.6 | – | – | 29.1 | > 100 µM | 2.75 | 9.65 µM | 20.1 | 50.5
